How the values were obtained:
[1] = target: bNOS (Homo sapiens, UniProt P29475); test: bNOS inhibition (method of Bredt and Snyder); assay type: biochemical; details: Proc. Natl. Acad. Sci. USA (1989) 86, 9030-9033
Text: The NOS-inhibitory action of the compounds of Formula (I) and their physiologically compatible salts can be determined according to the methods by Bredt and Snyder in Proc. Natl. Acad. Sci. USA (1989) 86, 9030-9033.

SMILES: NC1=Nc2c(F)cccc2C2CCCC12F (centres unmarked) [Example 2, 4-amino-3a,6-difluoro-2,3,3a,9b-tetrahydro-1H-cyclopenta[c]quinoline]
- IC50 [1]: 590 nM

SMILES: NC1=Nc2ccc(Br)cc2C2CCCC12F (centres unmarked) [Example 3, 4-Amino-8-bromo-3a-fluoro-2,3,3a,9b-tetrahydro-1H-cyclopenta[c]quinoline]
- melting point: 220 °C

— patent US6579883B1, “Fluorinated 3,4-dihydroquinoline derivatives used as NOS inhibitors” (Schering Aktiengesellschaft, priority 1998, dated 2003)
